# Assay results published in patent US11566007B2, “Ras inhibitors” (Revolution Medicines, Inc., priority 2019, dated 2023).
# pEC50, pIC50: −log10 of the molar value. Where two headings read alike, the source gives them in different places.
# How the values were obtained:
# [1] = target: KRAS Q61H (Homo sapiens (Human), UniProt P01116+P62937, Q61H); experiment: Ras-Raf (BRAF RBD) disruption / FRET / MOA assay, KRAS Q61H; assay type: biochemical; settings: Ras-Raf disruption/FRET/MOA assay; class symbols; read-out: KRAS Q61H FRET data IC50
# KRAS Q61H, sequence (P01116-2 other isoform, or with tags, fused parts or gaps Q61H): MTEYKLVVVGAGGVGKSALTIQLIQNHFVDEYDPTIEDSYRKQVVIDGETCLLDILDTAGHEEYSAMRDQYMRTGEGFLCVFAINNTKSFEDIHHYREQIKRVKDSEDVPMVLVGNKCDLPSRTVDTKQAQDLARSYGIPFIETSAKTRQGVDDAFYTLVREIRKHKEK
# KRAS Q61H, sequence (P62937 whole entry): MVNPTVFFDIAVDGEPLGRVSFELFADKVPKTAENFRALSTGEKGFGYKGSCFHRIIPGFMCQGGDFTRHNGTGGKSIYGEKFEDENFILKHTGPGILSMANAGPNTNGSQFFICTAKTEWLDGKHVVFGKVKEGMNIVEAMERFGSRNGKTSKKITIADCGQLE
# Procedure, shortened: (§1)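 TR-FRET disruption of nucleotide-loaded Ras binding to BRAF RBD via compound-driven ternary complex with cyclophilin A. Compound as 10-point 3-fold series from 30 μM final, 3 h at 25° C, then anti-His Eu-W1024 (10 nM) and anti-GST allophycocyanin (50 nM) for 1.5 h. IC50 from decreased FRET ratio versus DMSO.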
# [2] = target: NRAS Q61R (Homo sapiens (Human), UniProt P01111+P62937, Q61R); experiment: Ras-Raf (BRAF RBD) disruption / FRET / MOA assay, NRAS Q61R; assay type: biochemical; settings: NRAS Q61R; Ras-Raf disruption/FRET/MOA assay; read-out: IC50* NRAS Q61R FRET data
# NRAS Q61R, sequence (P01111 whole entry Q61R): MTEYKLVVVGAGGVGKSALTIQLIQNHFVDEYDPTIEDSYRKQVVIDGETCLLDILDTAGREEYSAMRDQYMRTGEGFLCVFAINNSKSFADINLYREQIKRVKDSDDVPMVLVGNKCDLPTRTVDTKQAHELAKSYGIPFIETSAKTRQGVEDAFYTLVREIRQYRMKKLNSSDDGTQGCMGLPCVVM
# NRAS Q61R, sequence (P62937 whole entry): as the sequence (P62937 whole entry) above
# Procedure, shortened: as §1
# [3] = target: NRAS WT (Homo sapiens (Human), UniProt P01111+P62937); experiment: Ras-Raf (BRAF RBD) disruption / FRET / MOA assay, NRAS WT; assay type: biochemical; settings: read-out: IC50* NRAS WT FRET data
# NRAS WT, sequence (P01111 whole entry): as the sequence (P01111 whole entry Q61R) above, with R61Q counted along it
# NRAS WT, sequence (P62937 whole entry): as the sequence (P62937 whole entry) above
# Procedure, shortened: as §1
# [4] = target: K-Ras G13C (Homo sapiens (Human), UniProt P01116+P62937, G13C); experiment: Ras-Raf (BRAF RBD) disruption / FRET / MOA assay, KRAS G13C; assay type: biochemical; settings: KRAS G13C, Ras-Raf disruption/FRET/MOA assay
# K-Ras G13C, sequence (P01116-2 other isoform, or with tags, fused parts or gaps G13C): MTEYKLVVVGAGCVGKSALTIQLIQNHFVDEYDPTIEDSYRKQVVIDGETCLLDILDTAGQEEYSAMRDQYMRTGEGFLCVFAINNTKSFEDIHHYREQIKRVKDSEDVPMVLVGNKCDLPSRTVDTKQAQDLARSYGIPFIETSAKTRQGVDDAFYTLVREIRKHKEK
# K-Ras G13C, sequence (P62937 whole entry): as the sequence (P62937 whole entry) above
# Procedure, shortened: (§2)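 Compounds, top final concentration 30 μM in 10-point 3-fold series, incubated 3 hours at 25° C with nucleotide-loaded Ras, cyclophilin A and BRAF RBD.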
# [5] = test system: NCI-H358 cells (K-Ras G12C); experiment: Potency assay: pERK in NCI-H358 cells; assay type: cell-based, human; settings: Homo sapiens, NCI-H358; H358 KRAS G12C; read-out: pERK EC50
# Procedure, shortened: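 Inhibition of cellular pERK after a 4 h treatment, detected by AlphaLISA or In-Cell Western. IC50 from a four-parameter concentration-response fit.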
# [6] = target: NRAS G12C (Homo sapiens (Human), UniProt P01111+P62937, G12C); experiment: Ras-Raf (BRAF RBD) disruption / FRET / MOA assay, NRAS G12C; assay type: biochemical
# NRAS G12C, sequence (P01111 whole entry G12C): as the sequence (P01111 whole entry Q61R) above, with G12C, R61Q counted along it
# NRAS G12C, sequence (P62937 whole entry): as the sequence (P62937 whole entry) above
# Procedure, shortened: as §2
# [7] = read-out: IC50* KRAS G13C FRET data
# [8] = read-out: IC50* NRAS G12C FRET data
Structure (SMILES),pIC50 [1],pIC50 [2],pIC50 [3],"pIC50 [4, 7]",pEC50 [5],"pIC50 [6, 8]",pIC50 ([4]; IC50* KRAS G13C FRET data),pIC50 ([6]; IC50* NRAS G12C FRET data)
"C=CC(=O)N1CC[C@H](C(=O)N(C)[C@H](C(=O)N[C@H]2Cc3nc(cs3)-c3ccc4c(c3)c(c(-c3cccnc3[C@H](C)OC)n4CC(F)(F)F)CC(C)(C)COC(=O)[C@@H]3CCCN(N3)C2=O)C(C)C)C1 (atropisomer, axis not shown) [Example A502]",6.00 to 7.00,6.00 to 7.00,6.00 to 7.00,6.00 to 7.00,> 5.30,6.00 to 7.00,–,–
"C=CC(=O)N1CC[C@H](C(=O)N(C)[C@H](C(=O)N[C@H]2Cc3cc(CF)cc(c3)-c3ccc4c(c3)c(c(-c3cccnc3[C@H](C)OC)n4CC)CC(C)(C)COC(=O)[C@@H]3CCCN(N3)C2=O)C(C)C)C1 (atropisomer, axis not shown) [Example A503]",6.00 to 7.00,5.00 to 6.00,5.00 to 6.00,6.00 to 7.00,> 5.30,7.00 to 8.00,–,–
"C=CC(=O)N1CC[C@H](C(=O)N(C)[C@H](C(=O)N[C@H]2Cc3cccc(c3)-c3ccc4c(c3)c(c(-c3cc(CN(C)C)cnc3[C@H](C)OC)n4CC)CC(C)(C)COC(=O)[C@@H]3CCCN(N3)C2=O)C(C)C)C1 (atropisomer, axis not shown) [Example A522]",6.00 to 7.00,5.00 to 6.00,5.00 to 6.00,5.00 to 6.00,> 5.30,6.00 to 7.00,–,–
"C=CC(=O)N1CCO[C@H]2CN(C(=O)N(C)[C@H](C(=O)N[C@H]3Cc4cc(C(F)F)cc(n4)-c4ccc5c(c4)c(c(-c4cccnc4[C@H](C)OC)n5CC(F)(F)F)CC(C)(C)COC(=O)[C@@H]4CCCN(N4)C3=O)C(C)C)C[C@H]21 (atropisomer, axis not shown) [Example A540]",6.00 to 7.00,5.00 to 6.00,5.00 to 6.00,–,> 5.30,–,7.00 to 8.00,6.00 to 7.00
"C=CC(=O)N1CCO[C@@H]2CN(C(=O)N(C)[C@H](C(=O)N[C@H]3Cc4nc(cs4)-c4ccc5c(c4)c(c(-c4cccnc4[C@H](C)OC)n5CC)CC(C)(C)COC(=O)[C@@H]4CCCN(N4)C3=O)C(C)C)C[C@H]21 (atropisomer, axis not shown) [Example A543]",7.00 to 8.00,6.00 to 7.00,6.00 to 7.00,6.00 to 7.00,> 5.30,> 8.00,–,–
"C=CC(=O)N1CCO[C@H]2CN(C(=O)N(C)[C@H](C(=O)N[C@H]3Cc4nc(cs4)-c4ccc5c(c4)c(c(-c4cccnc4[C@H](C)OC)n5CC)CC(C)(C)COC(=O)[C@@H]4CCCN(N4)C3=O)C(C)C)C[C@@H]21 (atropisomer, axis not shown) [Example A544]",7.00 to 8.00,6.00 to 7.00,6.00 to 7.00,6.00 to 7.00,> 5.30,> 8.00,–,–
"C=CC(=O)N1CCOC2(CCN(C(=O)N(C)[C@H](C(=O)N[C@H]3Cc4nsc(n4)-c4ccc5c(c4)c(c(-c4cccnc4[C@H](C)OC)n5CC)CC(C)(C)COC(=O)[C@@H]4CCCN(N4)C3=O)C(C)C)CC2)C1 (atropisomer, axis not shown) [Example A545]",7.00 to 8.00,6.00 to 7.00,6.00 to 7.00,7.00 to 8.00,> 5.30,7.00 to 8.00,–,–
"C=CC(=O)N1CC[C@@H]2[C@H]1CN2C(=O)N(C)[C@H](C(=O)N[C@H]1Cc2nc(cs2)-c2ccc3c(c2)c(c(-c2cccnc2[C@H](C)OC)n3CC)CC(C)(C)COC(=O)[C@@H]2CCCN(N2)C1=O)C(C)C (atropisomer, axis not shown) [Example A546]",6.00 to 7.00,6.00 to 7.00,6.00 to 7.00,7.00 to 8.00,> 5.30,6.00 to 7.00,–,–
"CCn1c(-c2cccnc2[C@H](C)OC)c2c3cc(ccc31)-c1cccc(c1)C[C@H](NC(=O)[C@H](C(C)C)N1CC[C@@]3(CCN(C(=O)C#C[C@H]4COCCN4C)C3)C1=O)C(=O)N1CCC[C@H](N1)C(=O)OCC(C)(C)C2 (atropisomer, axis not shown) [Example A551]",6.00 to 7.00,5.00 to 6.00,5.00 to 6.00,6.00 to 7.00,> 5.30,> 8.00,–,–
"CCn1c(-c2cccnc2[C@H](C)OC)c2c3cc(ccc31)-c1cccc(c1)C[C@H](NC(=O)[C@H](C(C)C)N1CO[C@@]3(CCN(C(=O)/C=C/CN(C)C)C3)C1=O)C(=O)N1CCC[C@H](N1)C(=O)OCC(C)(C)C2 (atropisomer, axis not shown) [Example A558]",6.00 to 7.00,5.00 to 6.00,6.00 to 7.00,6.00 to 7.00,> 5.30,7.00 to 8.00,–,–
"CO[C@@H](COC1CN(C(=O)C#CC(C)(C)N(C)C)C1)C(=O)N[C@H]1Cc2coc(n2)-c2ccc3c(c2)c(c(-c2cccnc2[C@H](C)OC)n3CC(F)(F)F)CC(C)(C)COC(=O)[C@@H]2CCCN(N2)C1=O (atropisomer, axis not shown) [Example A579]",5.00 to 6.00,< 5.00,5.00 to 6.00,5.00 to 6.00,> 5.30,> 8.00,–,–
"C=CC(=O)N1CCO[C@H]2CCN(C(=O)N(C)[C@H](C(=O)N[C@H]3Cc4nc(cs4)-c4ccc5c(c4)c(c(-c4cccnc4[C@H](C)OC)n5CC)CC(C)(C)COC(=O)[C@@H]4CCCN(N4)C3=O)C(C)C)C[C@H]21 (atropisomer, axis not shown) [Example A580]",7.00 to 8.00,6.00 to 7.00,6.00 to 7.00,6.00 to 7.00,> 5.30,7.00 to 8.00,–,–
"C=CC(=O)NCCN1CCN(C(=O)N(C)[C@H](C(=O)N[C@H]2Cc3nc(cs3)-c3ccc4c(c3)c(c(-c3cccnc3[C@H](C)OC)n4CC)CC(C)(C)COC(=O)[C@@H]3CCCN(N3)C2=O)C(C)C)CC1 (atropisomer, axis not shown) [Example A582]",7.00 to 8.00,6.00 to 7.00,6.00 to 7.00,6.00 to 7.00,> 5.30,7.00 to 8.00,–,–
"CCn1c(-c2cccnc2[C@H](C)OC)c2c3cc(ccc31)-c1cccc(c1)C[C@H](NC(=O)[C@@H](CO[C@@H]1CCN(C(=O)C#CC(C)(C)N(C)C)C1)C(C)C)C(=O)N1CCC[C@H](N1)C(=O)OCC(C)(C)C2 (atropisomer, axis not shown) [Example A584]",5.00 to 6.00,< 5.00,5.00 to 6.00,5.00 to 6.00,> 5.30,7.00 to 8.00,–,–
"CCn1c(-c2cccnc2[C@H](C)OC)c2c3cc(ccc31)-c1cc(CF)cc(c1)C[C@H](NC(=O)[C@@H](COC1CN(C(=O)C#CC(C)(C)N(C)C)C1)C(C)C)C(=O)N1CCC[C@H](N1)C(=O)OCC(C)(C)C2 (atropisomer, axis not shown) [Example A587]",< 5.00,< 5.00,< 5.00,< 5.00,> 5.30,7.00 to 8.00,–,–
"CO[C@@H](C)c1ncccc1-c1c2c3cc(ccc3n1CC(F)(F)F)-c1cc(CF)cc(c1)C[C@H](NC(=O)[C@@H](COC1CN(C(=O)C#CC(C)(C)N(C)C)C1)C(C)C)C(=O)N1CCC[C@H](N1)C(=O)OCC(C)(C)C2 (atropisomer, axis not shown) [Example A589]",5.00 to 6.00,< 5.00,5.00 to 6.00,5.00 to 6.00,> 5.30,7.00 to 8.00,–,–
"CO[C@@H](C)c1ncccc1-c1c2c3cc(ccc3n1CC(F)(F)F)-c1nc(ns1)C[C@H](NC(=O)[C@@H](COC1CN(C(=O)C#CC(C)(C)N(C)C)C1)C(C)C)C(=O)N1CCC[C@H](N1)C(=O)OCC(C)(C)C2 (atropisomer, axis not shown) [Example A590, (2R)-2-(((1-(4-(dimethylamino)-4-methylpent-2-ynoyl)azetidin-3-yl)oxy)methyl)-N-((6^3S,4S,Z)-1^2-(2-((S)-1-methoxyethyl)pyridin-3-yl)-10,10-dimethyl-5,7-dioxo-1^1-(2,2,2-trifluoroethyl)-6^1,6^2,6^3,6^4,6^5,6^6-hexahydro-1^1H-8-oxa-2(5,3)-thiadiazola-1(5,3)-indola-6(1,3)-pyridazinacycloundecaphane-4-yl)-3-methylbutanamide]",5.00 to 6.00,< 5.00,5.00 to 6.00,5.00 to 6.00,> 5.30,7.00 to 8.00,–,–
"C=CC(=O)N1CCO[C@@]2(CCN(C(=O)N(C)[C@H](C(=O)N[C@H]3Cc4nc(cs4)-c4ccc5c(c4)c(c(-c4cccnc4[C@H](C)OC)n5CC(F)(F)F)CC(C)(C)COC(=O)[C@@H]4CCCN(N4)C3=O)C(C)C)C2)C1 (atropisomer, axis not shown) [Example A594]",7.00 to 8.00,7.00 to 8.00,7.00 to 8.00,7.00 to 8.00,> 5.30,–,–,7.00 to 8.00
